Measured values published in patent publication US9833497B2, “Human originated EGF domain proteins and use of the same” (CHENGDU SOURCEBIO LIMITED-LIABILITY COMPANY, priority 2013, dated 2017).

System: E. coli DH5α
Assay: Antibacterial activity: MIC and growth curve against E. coli DH5α in 96-well plate
Assay type: cell-based
Settings: minimal inhibitory concentration against E. coli DH5α; 96-well plate, 5×10^5 CFU/mL, 37° C., judged after 8 h
How it was run: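 MIC taken as lowest protein level with no bacterial growth, tracked by A600 every 30 min during 37 °C, 175 rpm culture. Two-fold protein series 50-12.5 μg/mL final, triplicate wells, against 5×10^5 CFU/mL of LB-washed mid-log cells.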

Compared with “PRT426 (DINECTSLSEPCRPGFSCINTVGSYTCQRNPLICARGYHASDDGTKCV; listed as Homo sapiens)”, “PRT982 (VLSPCESQPCQHGGQCRPSPGPGGGLTFTCHCAQPFWGPRCE; listed as Homo sapiens)” is 4-fold higher in MIC: 12.5 µg/mL for the first, 50 µg/mL for the second.

“PRT1005 (LMDLCAQKPCPRNSHCLQTGPSFHCLCLQGWTGPLCN; listed as Homo sapiens)” and “PRT398 (DDNECHAQPDLCVNGRCVNTAGSFRCDCDEGFQPSPTLTECH; listed as Homo sapiens)” are the same in MIC: 50 µg/mL for the first, 50 µg/mL for the second.

System: E. coli BL21
Assay: MIC against Gram-negative bacteria: E. coli BL21
Assay type: cell-based
Settings: E. coli BL21; 10 h cultivation at 37° C.
How it was run: (§1)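 Read-out is absence of bacterial growth, with MIC set at the lowest recombinant protein concentration achieving it. Bacteria, pre-grown in LB to McFarland 0.5 and resuspended, were exposed at 5×10^5 CFU/mL to two-fold diluted human EGF domain proteins in triplicate at 37° C, 175 rpm.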

First: PRT982 (VLSPCESQPCQHGGQCRPSPGPGGGLTFTCHCAQPFWGPRCE; listed as Homo sapiens)
Second: PRT1005 (LMDLCAQKPCPRNSHCLQTGPSFHCLCLQGWTGPLCN; listed as Homo sapiens)
The MIC of the first is 2-fold higher: 25 µg/mL for the first, 12.5 µg/mL for the second.

Same assay, conditions: E. coli BL21; 10 h cultivation at 37° C.; 5×10^5 CFU/mL

First: PRT426 (DINECTSLSEPCRPGFSCINTVGSYTCQRNPLICARGYHASDDGTKCV; listed as Homo sapiens)
Second: PRT398 (DDNECHAQPDLCVNGRCVNTAGSFRCDCDEGFQPSPTLTECH; listed as Homo sapiens)
The MIC of the first is 4-fold higher: 50 µg/mL for the first, 12.5 µg/mL for the second.

System: Pseudomonas aeruginosa
Assay: MIC against Gram-negative bacteria: Pseudomonas aeruginosa
Assay type: cell-based
Settings: P. aeruginosa; 10 h cultivation at 37° C.
How it was run: as §1

Compared with “PRT982 (VLSPCESQPCQHGGQCRPSPGPGGGLTFTCHCAQPFWGPRCE; listed as Homo sapiens)”, “PRT1005 (LMDLCAQKPCPRNSHCLQTGPSFHCLCLQGWTGPLCN; listed as Homo sapiens)” is 4-fold higher in MIC: 12.5 µg/mL for the first, 50 µg/mL for the second.

Same assay, conditions: P. aeruginosa; 10 h cultivation at 37° C.; 5×10^5 CFU/mL

“PRT426 (DINECTSLSEPCRPGFSCINTVGSYTCQRNPLICARGYHASDDGTKCV; listed as Homo sapiens)” and “PRT398 (DDNECHAQPDLCVNGRCVNTAGSFRCDCDEGFQPSPTLTECH; listed as Homo sapiens)” are the same in MIC: 50 µg/mL for the first, 50 µg/mL for the second.

System: Klebsiella pneumonia
Assay: MIC against Gram-negative bacteria: Klebsiella pneumonia
Assay type: cell-based
Settings: K. pneumonia; 10 h cultivation at 37° C.
How it was run: as §1

First: PRT982 (VLSPCESQPCQHGGQCRPSPGPGGGLTFTCHCAQPFWGPRCE; listed as Homo sapiens)
Second: PRT1005 (LMDLCAQKPCPRNSHCLQTGPSFHCLCLQGWTGPLCN; listed as Homo sapiens)
The MIC of the first is 4-fold higher: 50 µg/mL for the first, 12.5 µg/mL for the second.

Same assay, conditions: K. pneumonia; 10 h cultivation at 37° C.; 5×10^5 CFU/mL

First: PRT426 (DINECTSLSEPCRPGFSCINTVGSYTCQRNPLICARGYHASDDGTKCV; listed as Homo sapiens)
Second: PRT398 (DDNECHAQPDLCVNGRCVNTAGSFRCDCDEGFQPSPTLTECH; listed as Homo sapiens)
The MIC of the first is 4-fold higher: 50 µg/mL for the first, 12.5 µg/mL for the second.

System: Enterobacter cloacae
Assay: MIC against Gram-negative bacteria: Enterobacter cloacae
Assay type: cell-based
Settings: E. cloacae; 10 h cultivation at 37° C.
How it was run: as §1

First: PRT982 (VLSPCESQPCQHGGQCRPSPGPGGGLTFTCHCAQPFWGPRCE; listed as Homo sapiens)
Second: PRT1005 (LMDLCAQKPCPRNSHCLQTGPSFHCLCLQGWTGPLCN; listed as Homo sapiens)
The MIC of the first is 2-fold lower: 12.5 µg/mL for the first, 25 µg/mL for the second.

Same assay, conditions: E. cloacae; 10 h cultivation at 37° C.; 5×10^5 CFU/mL

“PRT426 (DINECTSLSEPCRPGFSCINTVGSYTCQRNPLICARGYHASDDGTKCV; listed as Homo sapiens)” and “PRT398 (DDNECHAQPDLCVNGRCVNTAGSFRCDCDEGFQPSPTLTECH; listed as Homo sapiens)” are the same in MIC: 50 µg/mL for the first, 50 µg/mL for the second.

System: Aeromonas hydrophila
Assay: MIC against Gram-negative bacteria: Aeromonas hydrophila
Assay type: cell-based
Settings: A. hydrophila; 10 h cultivation at 37° C.
How it was run: as §1

First: PRT982 (VLSPCESQPCQHGGQCRPSPGPGGGLTFTCHCAQPFWGPRCE; listed as Homo sapiens)
Second: PRT1005 (LMDLCAQKPCPRNSHCLQTGPSFHCLCLQGWTGPLCN; listed as Homo sapiens)
The MIC of the first is 2-fold lower: 25 µg/mL for the first, 50 µg/mL for the second.

Same assay, conditions: A. hydrophila; 10 h cultivation at 37° C.; 5×10^5 CFU/mL

“PRT426 (DINECTSLSEPCRPGFSCINTVGSYTCQRNPLICARGYHASDDGTKCV; listed as Homo sapiens)” and “PRT398 (DDNECHAQPDLCVNGRCVNTAGSFRCDCDEGFQPSPTLTECH; listed as Homo sapiens)” are the same in MIC: 12.5 µg/mL for the first, 12.5 µg/mL for the second.

System: Citrobacter diversus
Assay: MIC against Gram-negative bacteria: Citrobacter diversus
Assay type: cell-based
Settings: C. diversus; 10 h cultivation at 37° C.
How it was run: as §1

Compared with “PRT982 (VLSPCESQPCQHGGQCRPSPGPGGGLTFTCHCAQPFWGPRCE; listed as Homo sapiens)”, “PRT1005 (LMDLCAQKPCPRNSHCLQTGPSFHCLCLQGWTGPLCN; listed as Homo sapiens)” is 2-fold lower in MIC: 50 µg/mL for the first, 25 µg/mL for the second.

Same assay, conditions: C. diversus; 10 h cultivation at 37° C.; 5×10^5 CFU/mL

Compared with “PRT426 (DINECTSLSEPCRPGFSCINTVGSYTCQRNPLICARGYHASDDGTKCV; listed as Homo sapiens)”, “PRT398 (DDNECHAQPDLCVNGRCVNTAGSFRCDCDEGFQPSPTLTECH; listed as Homo sapiens)” is 4-fold higher in MIC: 12.5 µg/mL for the first, 50 µg/mL for the second.

System: Moraxella catarrhalis
Assay: MIC against Gram-negative bacteria: Moraxella catarrhalis
Assay type: cell-based
Settings: M. catarrhalis; 10 h cultivation at 37° C.
How it was run: as §1

“PRT982 (VLSPCESQPCQHGGQCRPSPGPGGGLTFTCHCAQPFWGPRCE; listed as Homo sapiens)” and “PRT1005 (LMDLCAQKPCPRNSHCLQTGPSFHCLCLQGWTGPLCN; listed as Homo sapiens)” are the same in MIC: 12.5 µg/mL for the first, 12.5 µg/mL for the second.

Same assay, conditions: M. catarrhalis; 10 h cultivation at 37° C.; 5×10^5 CFU/mL

“PRT426 (DINECTSLSEPCRPGFSCINTVGSYTCQRNPLICARGYHASDDGTKCV; listed as Homo sapiens)” and “PRT398 (DDNECHAQPDLCVNGRCVNTAGSFRCDCDEGFQPSPTLTECH; listed as Homo sapiens)” are the same in MIC: 12.5 µg/mL for the first, 12.5 µg/mL for the second.

System: Proteus mirabilis
Assay: MIC against Gram-negative bacteria: Proteus mirabilis
Assay type: cell-based
Settings: P. mirabilis; 10 h cultivation at 37° C.
How it was run: as §1

Compared with “PRT982 (VLSPCESQPCQHGGQCRPSPGPGGGLTFTCHCAQPFWGPRCE; listed as Homo sapiens)”, “PRT1005 (LMDLCAQKPCPRNSHCLQTGPSFHCLCLQGWTGPLCN; listed as Homo sapiens)” is 2-fold lower in MIC: 50 µg/mL for the first, 25 µg/mL for the second.

Same assay, conditions: P. mirabilis; 10 h cultivation at 37° C.; 5×10^5 CFU/mL

“PRT426 (DINECTSLSEPCRPGFSCINTVGSYTCQRNPLICARGYHASDDGTKCV; listed as Homo sapiens)” and “PRT398 (DDNECHAQPDLCVNGRCVNTAGSFRCDCDEGFQPSPTLTECH; listed as Homo sapiens)” are the same in MIC: 12.5 µg/mL for the first, 12.5 µg/mL for the second.

System: Proteus vulgaris
Assay: MIC against Gram-negative bacteria: Proteus vulgaris
Assay type: cell-based
Settings: P. vulgaris; 10 h cultivation at 37° C.
How it was run: as §1

First: PRT982 (VLSPCESQPCQHGGQCRPSPGPGGGLTFTCHCAQPFWGPRCE; listed as Homo sapiens)
Second: PRT1005 (LMDLCAQKPCPRNSHCLQTGPSFHCLCLQGWTGPLCN; listed as Homo sapiens)
The MIC of the first is 4-fold lower: 12.5 µg/mL for the first, 50 µg/mL for the second.

Same assay, conditions: P. vulgaris; 10 h cultivation at 37° C.; 5×10^5 CFU/mL

First: PRT426 (DINECTSLSEPCRPGFSCINTVGSYTCQRNPLICARGYHASDDGTKCV; listed as Homo sapiens)
Second: PRT398 (DDNECHAQPDLCVNGRCVNTAGSFRCDCDEGFQPSPTLTECH; listed as Homo sapiens)
The MIC of the first is 2-fold higher: 25 µg/mL for the first, 12.5 µg/mL for the second.

System: Serratia marcescens
Assay: MIC against Gram-negative bacteria: Serratia marcescens
Assay type: cell-based
Settings: S. marcescens; 10 h cultivation at 37° C.
How it was run: as §1

Compared with “PRT982 (VLSPCESQPCQHGGQCRPSPGPGGGLTFTCHCAQPFWGPRCE; listed as Homo sapiens)”, “PRT1005 (LMDLCAQKPCPRNSHCLQTGPSFHCLCLQGWTGPLCN; listed as Homo sapiens)” is 2-fold lower in MIC: 50 µg/mL for the first, 25 µg/mL for the second.

Same assay, conditions: S. marcescens; 10 h cultivation at 37° C.; 5×10^5 CFU/mL

Compared with “PRT426 (DINECTSLSEPCRPGFSCINTVGSYTCQRNPLICARGYHASDDGTKCV; listed as Homo sapiens)”, “PRT398 (DDNECHAQPDLCVNGRCVNTAGSFRCDCDEGFQPSPTLTECH; listed as Homo sapiens)” is 2-fold higher in MIC: 50 µg/mL for the first, 100 µg/mL for the second.
